Test results from PubChem BioAssay AID602482 (Sanford-Burnham Center for Chemical Genomics, 2012).
Active and inactive are the calls of the source.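 Rule for the calls: active = compounds whose mean concentration giving half-maximal cell killing is 20 µM or lower; inactive = the rest.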

System: NTR1-U2OS viability, ATPLite luminescence, 24 h
Test: cytotoxicity in NTR1-U2OS cells, SAR follow-up, cytotoxicity control for NTR1 agonist project, cell-based, luminescence, ATPLite (AID 602482)

| Compound | IC50 |
| --- | --- |
| COc1cc2nc(C3CC3)nc(N3CCN(c4ccccc4OC)CC3)c2cc1OC | 25.4 µM (inactive) |
| COc1cccc(OC)c1-c1nc(C(=O)N[C@@H](CC(C)C)C(=O)O)cn1-c1ccnc2cc(Cl)ccc12 | > 80 µM (inactive) |
